From US4568693A, “N-Naphthoylglycine derivatives” (Ayerst, McKenna & Harrison, Inc., priority 1981, dated 1986)

Molecular target: T1, aldose reductase (Bos taurus, UniProt P16116)
T1 construct: the preparation of the enzyme from bovine lens; from tissue; host or cells: bovine lens
Assay: in vitro aldose reductase inhibition (modified Hayman and Kinoshita procedure)
Format: biochemical, bovine
Conditions: for inhibition at 10 µM: 10^-5 molar, read-out: % Inhibition at Different Molar Concentration (in vitro), 10^-5; for inhibition at 1 µM: 10^-6 molar, read-out: % Inhibition at Different Molar Concentration (in vitro), 10^-6; for inhibition at 0.1 µM: 10^-7 molar, read-out: % Inhibition at Different Molar Concentration (in vitro), 10^-7
Excerpt: In the present case the procedure of Hayman and Kinoshita is modified in that the final chromatography step is omitted in the preparation of the enzyme from bovine lens.

Row | Structure (SMILES) | inhibition at 10 µM [%] | inhibition at 1 µM [%] | inhibition at 0.1 µM [%]
1 | COC(=O)CN(C)C(=S)c1cccc2c(Br)cccc12 [Example 3, N-[(5-Bromo-1-naphthalenyl)thioxomethyl]-N-methylglycine Methyl Ester] | 8 | – | –
2 | COc1c(Cl)cc(C(=S)NCC(=O)O)c2ccccc12 [Example 32 (H, H, 3-Cl, 4-CH3 O), N-[(3-chloro-4-methoxy-1-naphthalenyl)thioxomethyl]glycine] | 61 | 16 | –
3 | CN(CC(=O)O)C(=S)c1ccc(Br)c2ccccc12 [Example 33, N-[(4-bromo-1-naphthalenyl)thioxomethyl]-N-methylglycine] | 91 | 77 | 32
4 | CN(CC(=O)O)C(=S)c1cccc2cccc(Br)c12 [Example 34, N-[(8-bromo-1-naphthalenyl)thioxomethyl]-N-methylglycine] | 88 | 75 | 24
5 | COc1cccc2c(C(=S)N(C)CC(=O)O)cccc12 [Example 35, N-[(5-methoxy-1-naphthalenyl)thioxomethyl]-N-methylglycine] | 83 | 64 | 17
6 | Cc1cccc2c(C(=S)N(C)CC(=O)O)cccc12 [Example 36, N-[(5-methyl-1-naphthalenyl)thioxomethyl]-N-methylglycine] | 89 | 74 | 26
7 | CCCCCOc1ccc2c(C(=S)N(C)CC(=O)O)cccc2c1Br [Example 37, N-[(5-bromo-6-pentyloxy-1-naphthalenyl)thioxomethyl]-N-methylglycine] | 93 | 91 | 55
8 | CN(CC(=O)O)C(=S)c1cccc2c(C#N)cccc12 [Example 38, N-[(5-cyano-1-naphthalenyl)thioxomethyl]-N-methylglycine] | 89 | 79 | 32
9 | CN(CC(=O)O)C(=S)c1cccc2c([N+](=O)[O-])cccc12 [Example 39, N-[(5-nitro-1-naphthalenyl)thioxomethyl]-N-methylglycine] | 91 | 83 | 43
10 | Cc1ccc2c(C(=S)N(C)CC(=O)O)cccc2c1Br [Example 42, N-[(5-bromo-6-methyl-1-naphthalenyl)thioxomethyl]-N-methylglycine] | 92 | 88 | 55
11 | CN(CC(=O)O)C(=S)c1cccc2ccccc12 [Example 43, N--((1naphthalenyl)thioxomethyl)-N--methylglycine] | 85 | 51 | 13
12 | CN(CC(=O)O)C(=S)c1ccc(Cl)c2ccccc12 [Example 44, N-[(4-chloro-1-naphthalenyl)thioxomethyl]-N-methylglycine] | 88 | 73 | 25
13 | COc1ccc2c(C(=S)N(C)CC(=O)O)cccc2c1I [Example 47, N-[(5-iodo-6-methoxy-1-naphthalenyl)thioxomethyl]-N-methylglycine] | 98 | 95 | 72
14 | COc1ccc2c(C(=S)N(C)CC(=O)O)cccc2c1C#N [Example 48, N-[(5-cyano-6-methoxy-1-naphthalenyl)thioxomethyl]-N-methylglycine] | 98 | 93 | 74
15 | COCCCOc1ccc2c(C(=S)N(C)CC(=O)O)cccc2c1Br [Example 49, N-[[5-bromo-6-(3-methoxy-propoxy)-1-naphthalenyl]thioxomethyl]-N-methylglycine] | 92 | 87 | 38
16 | C=C(C)c1cccc2c(C(=S)N(C)CC(=O)O)cccc12 [Example 50, N-[[5-(1-methylethenyl)-1-naphthalenyl]thioxomethyl]-N-methylglycine] | 92 | 74 | 19
